Measured values reported in article PMC12267471, “Discovery of natural scaffolds as HER2 inhibitors for breast cancer: virtual screening, molecular dynamics, and biological characterization with selectivity profiling” (Scientific Reports, 2025).

Tests used:
Assay type in all cases: cell-based, human
BT-474 cells [1] = test: Cell cycle analysis by PI flow cytometry, BT-474; details: BT-474, 3.5 µM, 24 h (control 59%)
Protocol: To evaluate liquiritin’s impact on cell cycle progression, a propidium iodide (PI)-based flow cytometry assay was performed using the Cell Cycle Analysis Kit (ab139418, Abcam) following the manufacturer’s protocol. BT-474 and SKBR3 cells were seeded into 100 mm culture plates at a density of 1 × 10^6 cells/plate in RPMI 1640 medium supplemented with 10% FBS and incubated overnight. To synchronize cells in the G1 phase, cultures were rinsed twice with PBS and maintained in serum-reduced medium (0.5% FBS) for 48 h. Synchronized cells were subsequently treated with liquiritin at concentrations equivalent to its respective IC50 values (determined via prior proliferation assays) in serum-free media for 24 h.
Post-treatment, cells were detached using trypsin, washed with ice-cold PBS, and fixed in 66% ethanol at 4 °C for 2 h. Fixed cells were rehydrated in PBS and stained with a freshly prepared PI solution (1 mg/mL PI, 5,500 U/mL RNase A in PBS) for 30 min at 4 °C in the dark. DNA content was quantified using a BD FACS Calibur flow cytometer (BD Biosciences, San Jose, CA), with 10,000 events analyzed per sample. Cell cycle phase distributions (G0/G1, S, G2/M) were calculated from histogram data generated by Cell Quest software (BD Biosciences). All assays were performed in triplicate to ensure reproducibility.

BT-474 cells [2] = test: Annexin V-FITC/PI apoptosis detection, BT-474; details: BT-474, 3.5 µM, 48 h
Protocol: (§1) To evaluate the induction of apoptosis, the translocation of phosphatidylserine to the outer cell membrane, as a hallmark of early apoptosis, was detected by the binding of annexin V, using the Annexin V-FITC Early Apoptosis Detection Kit (BD BioVision). Cells were seeded at a density of 5 × 10^5 cells per 100 mm culture plate and allowed to adhere overnight. […] At the end of the treatment period, cells were harvested by trypsinization, washed twice with ice-cold PBS, and resuspended in 500 µL of chilled 1X Annexin V Binding Buffer. To each sample, 5 µL of Annexin V-FITC conjugate and 5 µL of propidium iodide (PI, 50 µg/mL) were added. The cell suspensions were incubated for 5 minutes on ice in the dark to allow for staining.
(§2) Flow cytometric analysis was performed using excitation at 488 nm and emission at 530 nm for FITC detection (FL1 channel) and phycoerythrin emission settings for PI detection (FL2 channel). Data acquisition and analysis were facilitated by Cell Quest software (BD Biosciences), with dot plots divided into four quadrants to distinguish different cell populations: lower left (LL) for viable, non-apoptotic cells (negative for both annexin V and PI); lower right (LR) for early apoptotic cells (annexin V-positive, PI-negative); upper left (UL) for dead or necrotic cells (PI-positive, annexin V-negative); and upper right (UR) for late apoptotic cells (double-positive). All assays were conducted in triplicate to ensure reliability and reproducibility.

SKBR3 cells = test: Annexin V-FITC/PI apoptosis detection, SKBR3; details: SKBR3, 6.4 µM, 48 h
Protocol: as §1, §2

[3] = tested on: HER2 protein in BT-474 cells; test: Western blot of p-HER2 and t-HER2, BT-474; details: BT-474, 5 µM, 72 h
Protocol: SKBR3 and BT-474 were plated in RPMI-1640 media, washed, and incubated for 72 h. They were lysed in cold lysis buffer, frozen, collected, sonicated, and centrifuged for 10 min under cooling. The stacking and resolving solutions for polyacrylamide gels were prepared using various solutions, including 30% acrylamide, 0.5 M Tris, 10% SDS, 10% Ammonium persulfate, and 0.005 mL TEMED in 3.4 mL water and 3.3 mL water respectively. The ReadyPrepTM protein extraction kit was used to extract total protein from samples. Protein concentration was determined using the Bradford Protein Assay Kit. Samples were mixed with Laemmli sample buffer, pH adjusted and boiled for five minutes at 95 °C before loading onto SDS-polyacrylamide gels. Proteins in each sample were mixed, boiled, and loaded onto SDS-polyacrylamide gels. They were separated using the SDS-PAGE method, using the TGX Stain-Free™ FastCast™ Acrylamide Kit and a Cleaver electrophoresis unit. Proteins were transferred from gels to PVDF membranes using transfer sandwiches. Filter paper, membrane, gel, and filter paper were stacked in a sandwich. Gels were blotted onto PVDF membranes via electrophoresis using a Bio-Rad Semi-dry Electroblotter for 30 min. […] The intensity of each band was quantitated using ImageLab.

O=C1C[C@@H](c2ccc(O[C@@H]3O[C@H](CO)[C@@H](O)[C@H](O)[C@H]3O)cc2)Oc2cc(O)ccc21 [Liquiritin]
proportion of cells in G1 phase (BT-474 cells [1]): ~88%
early apoptosis (Annexin V+/PI−) cells (BT-474 cells [2]): 22.05%
late apoptosis (Annexin V+/PI+) cells (BT-474 cells [2]): 11.44%
necrosis (BT-474 cells [2]): 3.7%
early apoptotic population (SKBR3 cells): 7.33%
late apoptosis (Annexin V+/PI+) cells (SKBR3 cells): 14.59%
necrotic population (SKBR3 cells): 2.84%
total expression levels of HER2 protein [3]: comparable suppressive effects
HER2 phosphorylation ([3]; vs vehicle): significantly inhibited HER2 phosphorylation
